These are literature values, as cited in patent US20140030241A1 (NESTEC S.A., priority 2011, published 2014).

In one data set the test system is IgG and IgM response. The note with it: rodents.
The next data set concerns Candida albicans. The note with it: rodents on nucleotide free diet, Candida albicans challenge.
The next data set has as its system Splenic lymphocytes. The note with it: rodents on nucleotide free diets, additions to the diet.
For data set [1] the following is noted: enters circulation without being metabolized by the liver.

On to `Nc1nc2c(ncn2[C@@H]2O[C@H](COP(=O)(O)O)[C@@H](O)[C@H]2O)c(=O)[nH]1` [GMP, 5′-Guanosine Monophosphate], for which, in the data set with IgG and IgM response, the IgG response entry is on record as “increased IgG response” and the IgM response entry was “increase IgM response”. With `O=c1ccn([C@@H]2O[C@H](COP(=O)(O)O)[C@@H](O)[C@H]2O)c(=O)[nH]1` [UMP, 5′-Uracil Monophosphate], the IgG response entry in the data set with IgG and IgM response is recorded as “increased IgG response”. Take `Nc1ncnc2c1ncn2[C@@H]1O[C@H](COP(=O)(O)O)[C@@H](O)[C@H]1O` [AMP, 5-Adenosine Monophosphate]: the IgG response entry with IgG and IgM response is given as “increased IgG response”. `Nc1ncnc2nc[nH]c12` [adenine]: the survival time entry in the data set with Candida albicans was “not”.

Turning to `O=c1cc[nH]c(=O)[nH]1` [uracil], the “suppressed cell-mediated immune responses (proliferation to mitogens, IL-2 production, IL-2 receptor and Lyt-1 markers, delayed cutaneous hypersensitivity)” value in the data set with Splenic lymphocytes was “largely reversed”. The survival time result in the data set with Candida albicans is “increase survival time”. In the case of `NC(=O)NCCC[C@H](N)C(=O)O` [citrulline], the “conversion to arginine in the kidneys” value in data set [1] was “almost complete”.
